Legend:
hyaluronidase = molecular target: T1, hyaluronidase (Bos taurus, UniProt Q2YDK3); assay: Antihyaluronidase activity (modified Morgan-Elson method, activated by Compound 48/80 or CaCl2); format: biochemical; details: hyaluronidase 340 NF unit/ml, 37° C.
T1 sequence (Q2YDK3 36-553): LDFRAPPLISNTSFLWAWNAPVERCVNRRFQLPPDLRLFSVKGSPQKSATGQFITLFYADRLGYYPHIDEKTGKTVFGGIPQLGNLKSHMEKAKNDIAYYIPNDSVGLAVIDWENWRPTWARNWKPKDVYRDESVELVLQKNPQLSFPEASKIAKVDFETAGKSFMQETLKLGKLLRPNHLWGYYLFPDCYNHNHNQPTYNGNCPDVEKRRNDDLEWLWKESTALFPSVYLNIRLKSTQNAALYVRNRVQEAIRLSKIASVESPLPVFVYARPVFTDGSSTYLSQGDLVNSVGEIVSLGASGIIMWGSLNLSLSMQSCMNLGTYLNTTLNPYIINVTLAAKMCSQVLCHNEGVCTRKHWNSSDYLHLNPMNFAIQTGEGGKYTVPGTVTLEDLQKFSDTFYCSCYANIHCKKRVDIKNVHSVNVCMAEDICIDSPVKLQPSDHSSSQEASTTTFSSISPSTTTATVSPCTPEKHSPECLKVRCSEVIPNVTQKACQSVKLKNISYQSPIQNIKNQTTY
From the text: In view of the fact that antiallergic agents such as sodium cromoglicate (DSCG), tranilast, etc. inhibit the hyaluronidase activity and that compounds which release histamine from the mast cells such as the […] and polymixin B activate the hyaluronidase, it is considered that the hyaluronidase inhibiting activity can be taken as an index for the antiallergic action. [ct. The 5th Medicinal Chemistry Symposium (Dec. 9 and 10, 1983; Kyoto) Synopsis of Lectures, page 68]. On the basis of such knowledge, the compounds according to the invention were tested for anti-hyaluronidase activity and found to have the excellent activities.
A buffer solution of hyaluronidase (0.1 ml) was taken in a test tube and buffer solutions of various compounds in various concentrations (0.2 ml each) were added. The mixture was incubated at 37° C. for 20 minutes. Then, a buffer solution of activating agent (Compound 48/80 or CaCl2) (0.2 ml) was added up to the total volume of 0.5 ml, and the mixture was incubated at 37° C. for 20 minutes. To this solution, potassium hyaluronate buffer solution (0.5 ml) was added and the mixture was incubated at 37° C. for 40 minutes. After cooling, the solution was neutralized with 0.4N aqueous solution of sodium hydroxide (0.2 ml) to stop the reaction. On the resulting solution, OD585 was determined by modified Morgan-Elson method. A buffer solution or water (0.2 ml) was used as a control in place of the solution of the compounds in the same operation including OD585 measurement. (Final concentration of hyaluronidase was 340 NF unit/ml.)

peritoneal mast cell = assay: Inhibition of histamine release from mast cell in abdominal cavity of rats by antigen-antibody reaction; format: cell-based, rat; details: for activity at 1000 µM / activity at 100 µM / activity at 10 µM / activity at 1 µM: Rattus norvegicus, Mast cell, 20 min, DNP-Ascaris 20 microgramms/ml, read-out: Amount of histamine released from peritoneal mast cell (Control=100); for activity at 1000 µM / effect on natural release of histamine (in words): 10^-3 M; for activity at 100 µM: 10^-4 M; for activity at 10 µM: 10^-5 M; for activity at 1 µM: 10^-6 M; for inhibitory activity compared with tranilast (in words): range of 10^-6 M to 10^-3 M
Description: Examination was made on the activity of inhibition of histamine release from mast cell by antigen-antibody reaction.
Swine ascaris extract solution was dinitrophenylated according to Aisen's method, dialysed, and lyophilized. The product was administered as antigen together with Bordetella Pertussis vaccine subcutaneously into the foot pad of rat. Eight days later, blood was taken in order to obtain antiserum. The PCA titer for this antiserum in rat was 32 to 64.
Heparin-containing PBS was injected intraperitoneally to rat which was sacrificed by exsanguination, after which the abdomen was well massaged. Then the injected PBS was collected and purified by washing several times by centrifugation. The number of the mast cells contained in the solution was determined and adjusted to the designed concentration. As to method of sensitizing the cell, the above cell suspension (6 ml, 2×10^6 cells/ml) was treated with anti-DNP-Ascaris rat serum (PCA titer 32) (6 ml) and the mixture was incubated in the presence of heparin at 37° C. for 2 hours.
To the sensitized mast cell suspension, the solution of the compound to be tested was added, and the mixture was preliminarily incubated at 37° C. for 12 minutes. After addition of the solution of antigen DNP-Ascaris (final concentration: 20 microgramms/ml), the mixture was further incubated for 20 minutes. After completion of the reaction, the solution was centrifuged (500 G, 10 min.) at a low temperature to obtain a supernatant solution. Histamine contained in the supernatant solution was determined by fluorometry using orthophthalaldehyde method.

SRS-A = assay: Anti-SRS-A action: ileum contraction induced by crude SRS-A solution; set-up: species or system guinea pig
Description: A piece of lung of guinea pig sensitized with ovalbumin was incubated with antigen ovalbumin at 37° C. for 20 minutes and supernatant was separated in order to use as a crude SRS-A solution.
A piece of ileum of a normal guinea pig was suspended in Tyrode's solution in a Magnus tube and incubated with a solution of the compound to be tested for a predetermined duration. The contraction of the piece of ileum induced by adding the above crude SRS-A solution was compared with that attributed to 10^-6 M histamine dihydrochloride (which was taken as 100). The anti-SRS-A action was shown in terms of the rate of inhibition to the contraction.

[1] = tested on: ileum of guinea pig active-sensitized with ovalbumin; assay: Anti-Schultz-Dale action: ovalbumin-induced contraction of sensitized ileum; details: 10^-3 M
Description: A piece of ileum of guinea pig active-sensitized with ovalbumin with Freund complete adjuvant was suspended in Tyrode's solution in a Magnus tube and incubated with a solution of the compound to be tested for a predetermined duration. The contraction of the piece of ileum induced by applying the ovalubumin was compared with that attributed to 10^-6 M histamine dihydrochloride. The anti-Schultz-Dale action was shown in terms of the rate of inhibition to the contraction.

[2] = tested on: passive cutaneous anaphylaxis; assay: Anti-passive cutaneous anaphylaxis (PCA) activity in rats; format: in vivo, Wistar strain rats; details: for Average Inhibition Rate (%), Antiserum Dilution: × 16 / Average Inhibition Rate (%), Antiserum Dilution: × 32: 100 mg/kg PO, rats; for anti-PCA activity (in words): rat, in vivo
Description: Wistar strain rats were sensitized with ovalbumin using aluminium hydroxide gel and Bordetella Pertussis vaccine as adjuvants. Dilutions of antiserum (16-fold and 32-fold) obtained by collecting blood samples 14 days later were administered subcutaneously in the dorsal skin of the rats of the same strain at the rate of 0.1 ml per spot, and the rats were grown for 48 hours. One hour after peroral administration of the sample solution, a mixture of antigen ovalbumin and Evans-blue dye was administered to the tail venous of the animal according to the ordinary procedure. Thirty minutes later, the animals were sacrificed by exsanguination, and the areas of blue spots (long diameter×short diameter) eliciting on the portion of the antiserum injection at the dorsal skin were measured to obtain the rate of inhibition based on the average value shown by the control animals.

Acute toxicity = details: mouse, in vivo, mice, one week
Description: As test animals, ddy-strain mice (male) were used. According to the conventional procedure, suspension or solution of test compound was administered to the animals. From the number of the dead animals up to one week after the administration, LD50 values were obtained by Provit method.

IC50 (hyaluronidase) [µM]	Compound	activity at 1000 µM (peritoneal mast cell) [%]	activity at 100 µM (peritoneal mast cell) [%]	activity at 10 µM (peritoneal mast cell) [%]	activity at 1 µM (peritoneal mast cell) [%]	anti-SRS-A action (in words) (SRS-A)	anti-Schultz-Dale action (in words) [1]	inhibition of histamine release from mast cell (in words) (peritoneal mast cell)	effect on natural release of histamine (in words) (peritoneal mast cell)	inhibitory activity compared with tranilast (in words) (peritoneal mast cell)	inhibition of SRS-A induced contraction (SRS-A; 10^-3 M) [%]	inhibition of contraction (anti-Schultz-Dale) [1] [%]	Average Inhibition Rate (%), Antiserum Dilution: × 16 [2] [%]	Average Inhibition Rate (%), Antiserum Dilution: × 32 [2] [%]	anti-PCA activity (in words) [2]	LD50 at 168 h (Acute toxicity; Intravenous) [mg/kg]	LD50 at 168 h (Acute toxicity; PO) [mg/kg]	inhibition of SRS-A induced contraction (SRS-A; 10^-4 M) [%]
300	O=C(C=Cc1ccco1)Nc1cc([N+](=O)[O-])ccc1C(=O)O [Compound 5]																	
	COc1ccc(/C=C/C(=O)Nc2ccccc2C(=O)O)cc1OC [Tranilast, reference compound]	29	67	95	95	no action	no action											
258	O=C(C=Cc1ccco1)Nc1cc(Cl)ccc1C(=O)O [Compound 4]																	
120	Cn1cccc1C=CC(=O)Nc1ccccc1C(=O)O [Compound 6]																	
160	O=C(C=Cc1ccco1)Nc1ccccc1C(=O)O [Compound 3, 2-[3-(2-furyl)acrylamido]benzoic acid]	0	36	85	95			strong inhibition from 10^-4 M		stronger inhibitory activity than the control tranilast					showed the anti-PCA activity			

Compound	IC50 (hyaluronidase) [µM]	activity at 1000 µM (peritoneal mast cell) [%]	activity at 100 µM (peritoneal mast cell) [%]	activity at 10 µM (peritoneal mast cell) [%]	activity at 1 µM (peritoneal mast cell) [%]	anti-SRS-A action (in words) (SRS-A)	anti-Schultz-Dale action (in words) [1]	inhibition of histamine release from mast cell (in words) (peritoneal mast cell)	effect on natural release of histamine (in words) (peritoneal mast cell)	inhibitory activity compared with tranilast (in words) (peritoneal mast cell)	inhibition of SRS-A induced contraction (SRS-A; 10^-3 M) [%]	inhibition of contraction (anti-Schultz-Dale) [1] [%]	Average Inhibition Rate (%), Antiserum Dilution: × 16 [2] [%]	Average Inhibition Rate (%), Antiserum Dilution: × 32 [2] [%]	anti-PCA activity (in words) [2]	LD50 at 168 h (Acute toxicity; Intravenous) [mg/kg]	LD50 at 168 h (Acute toxicity; PO) [mg/kg]	inhibition of SRS-A induced contraction (SRS-A; 10^-4 M) [%]
O=C(C=Cc1cccs1)Nc1ccccc1C(=O)O [Compound 2, 2-[3-(2-thienyl)acrylamido]benzoic acid]	140	-130	-70	24	11	mild anti-SRS-A action	strong anti-Schultz-Dale action	action of inhibiting release of histamine from the mast cell even at the low concentration of 10^-6 M	inhibited natural release of histamine	stronger inhibitory activity than the control tranilast	11.0	100	26.7	21.2	showed the anti-PCA activity	277	400	
O=C(C=Cc1ccsc1)Nc1ccccc1C(=O)O [Compound 1, 2-[3-(3-thienyl)acrylamido]benzoic acid]	86	-88	11	36	31	mild anti-SRS-A action	strong anti-Schultz-Dale action	action of inhibiting release of histamine from the mast cell even at the low concentration of 10^-6 M	inhibited natural release of histamine	stronger inhibitory activity than the control tranilast	23.9	83.5	31.6	41.8		438	615	14.8
